Some test systems named below: K-562 leukemia; SNB-75 CNS; M14 melanoma; EKVX NSCLC; HOP-92 NSCLC; MDA-MB-231 breast; A549 NSCLC; TK-10 renal; T-47D breast; CAKI-1 renal.
Test in all cases: DTP human tumour cell line panel, 48 h

Each structure is given as a SMILES string.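 Exposure lasted 48 hours, with cells grown in 96-well plates and compounds tested at five concentrations. Abbreviation: GI50, concentration required for 50% inhibition of growth. TGI is the concentration that stops growth completely.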

`COc1ccc(C=C2C(=O)NC(=O)NC2=O)cc1OCc1ccccc1`: the GI50 was 30.8 µg/mL with K-562 leukemia; 22.9 µg/mL in the assay with SNB-75 CNS; 28.1 µg/mL with M14 melanoma; 85.2 µg/mL with EKVX NSCLC; 57.2 µg/mL in the assay on HOP-92 NSCLC; 31.4 µg/mL in the assay on MDA-MB-231 breast. For the same compound, the TGI with M14 melanoma was 82.5 µg/mL.
Consider `CNc1ncc2cc(Oc3ccc(F)cc3F)c(=O)n(C)c2n1`, for which the GI50 in the assay with K-562 leukemia was more than 25 µM; in the assay on SNB-75 CNS, 9.33 µM; in the assay with M14 melanoma, more than 25 µM; with A549 NSCLC it was more than 25 µM; in the assay on TK-10 renal, more than 23.1 µM; in the assay on T-47D breast it was more than 25 µM. In addition, the GI50 in the assay with HOP-92 NSCLC is 3.82 µM; in the assay with CAKI-1 renal, more than 25 µM; in the assay with MDA-MB-231 breast it was more than 24.1 µM. For the same compound, the TGI in the assay with K-562 leukemia, in the assay on SNB-75 CNS, in the assay with M14 melanoma, in the assay with A549 NSCLC, in the assay with TK-10 renal and with T-47D breast was more than 25 µM throughout. Besides, the TGI with HOP-92 NSCLC, with CAKI-1 renal and in the assay with MDA-MB-231 breast was more than 25 µM throughout.
With `O=[N+]([O-])c1cc2c(ccc3occc32)o1`, the GI50 in the assay on K-562 leukemia is 2.14 µM; with SNB-75 CNS it was 3.08 µM; in the assay with M14 melanoma, 1.41 µM; in the assay on A549 NSCLC, 3.21 µM; in the assay on TK-10 renal it was 5.46 µM; in the assay on T-47D breast it was 41.3 µM. Further, the GI50 in the assay on CAKI-1 renal is 1.87 µM; in the assay on MDA-MB-231 breast it was 1.84 µM. Moreover, the total growth inhibition concentration (TGI) in the assay on K-562 leukemia is 8.03 µM; with SNB-75 CNS, 53.9 µM; in the assay with M14 melanoma, 3 µM; in the assay on A549 NSCLC it was 12.4 µM; in the assay on TK-10 renal it was 31.5 µM; in the assay on T-47D breast, more than 100 µM. In addition, the TGI is 4.57 µM in the assay on CAKI-1 renal and 5.83 µM in the assay with MDA-MB-231 breast.
Turning to `O=C(CN1C(=O)S/C(=C\C(Cl)=C\c2ccccc2)C1=O)NCCCn1ccnc1`, the GI50 in the assay on K-562 leukemia was 2.17 µM; with SNB-75 CNS it was 1.22 µM; in the assay on M14 melanoma it was 1.66 µM; in the assay on A549 NSCLC, 3.3 µM; with TK-10 renal, 2.3 µM; in the assay with EKVX NSCLC, 2.43 µM. The figures for the GI50 with T-47D breast, in the assay with HOP-92 NSCLC and in the assay on CAKI-1 renal were 2.8 µM, 1.76 µM and 1.91 µM, respectively. Moreover, the TGI is more than 100 µM in the assay with K-562 leukemia; 12.9 µM in the assay with SNB-75 CNS; 3.59 µM with M14 melanoma; 23.2 µM in the assay on A549 NSCLC; 4.53 µM with TK-10 renal; 6.69 µM in the assay on EKVX NSCLC. Moreover, the TGI with T-47D breast was 17.2 µM; in the assay on HOP-92 NSCLC it was 4.46 µM; in the assay with CAKI-1 renal, 4.16 µM.
Regarding `NS(=O)(=O)c1ccc(N2N=C(c3cccs3)CC2c2ccccc2O)cc1` (configuration not stated), the GI50 with K-562 leukemia is 1.24 µM; in the assay with SNB-75 CNS it was 0.437 µM; with M14 melanoma, 1.07 µM; in the assay with A549 NSCLC, 1.16 µM; with TK-10 renal, 1.09 µM; in the assay with T-47D breast, 2.24 µM. The values for the GI50 in the assay with CAKI-1 renal and in the assay with MDA-MB-231 breast were 1.47 µM and 0.972 µM, respectively. Besides, the TGI came out at 15.3 µM with K-562 leukemia; 1.76 µM with SNB-75 CNS; 4.1 µM in the assay on M14 melanoma; 7.06 µM in the assay with A549 NSCLC; 5.47 µM in the assay on TK-10 renal; 18.8 µM in the assay with T-47D breast. The TGI in the assay on CAKI-1 renal was 8.19 µM; in the assay on MDA-MB-231 breast it was 3.19 µM.
Consider `CCCC(CCC)C(=O)OCC1(CO)C/C(=C\c2ccc(C(F)(F)F)cc2)C(=O)O1` (configuration not stated), for which the GI50 is 0.823 µM with K-562 leukemia; 12.1 µM in the assay with SNB-75 CNS; 10.7 µM in the assay with M14 melanoma; 5.69 µM in the assay with A549 NSCLC; 5.62 µM in the assay with TK-10 renal; 11 µM in the assay on EKVX NSCLC. For the same compound, the values for the GI50 in the assay with T-47D breast, in the assay with CAKI-1 renal and in the assay with MDA-MB-231 breast were 14.7 µM, 6.16 µM and 7.66 µM, respectively. The TGI with K-562 leukemia was 20.6 µM; in the assay on SNB-75 CNS it was 26.8 µM; in the assay with M14 melanoma it was 23.2 µM; with A549 NSCLC it was 26.3 µM; with TK-10 renal it was 20.3 µM; in the assay with EKVX NSCLC it was 27.2 µM. The TGI worked out at 29.4 µM with T-47D breast, 21.2 µM with CAKI-1 renal and 22.9 µM in the assay on MDA-MB-231 breast.
In the case of `CN(C)N=Nc1nn(C(=O)Nc2ccc(Cc3ccccc3)cc2)c2ccccc12`, the GI50 is 0.0373 µM in the assay with K-562 leukemia; 85.4 µM in the assay on SNB-75 CNS; 0.168 µM in the assay with M14 melanoma; 3.9 µM in the assay on A549 NSCLC; more than 100 µM in the assay with TK-10 renal; 0.0719 µM in the assay with T-47D breast. The GI50 with HOP-92 NSCLC is 6.47 µM; with CAKI-1 renal it was 1.12 µM; in the assay with MDA-MB-231 breast it was 1.37 µM. In addition, the TGI in the assay on K-562 leukemia, in the assay with SNB-75 CNS, in the assay on M14 melanoma, in the assay on A549 NSCLC, in the assay on TK-10 renal and in the assay on T-47D breast was more than 100 µM in each case. For the same compound, the TGI in the assay with HOP-92 NSCLC, in the assay on CAKI-1 renal and in the assay with MDA-MB-231 breast was more than 100 µM each time.
Turning to `O=C(Cn1c2ccccc2c2ccncc21)N/N=C\c1ccc2ccccc2c1`, the GI50 in the assay on K-562 leukemia was 24.7 µM; in the assay on SNB-75 CNS, 22.2 µM; in the assay on M14 melanoma it was 16.5 µM; with A549 NSCLC, 20.9 µM; with TK-10 renal it was 27.3 µM; in the assay on EKVX NSCLC, 24.8 µM. In addition, the figures for the GI50 with T-47D breast, in the assay on HOP-92 NSCLC and with MDA-MB-231 breast were 25.2 µM, 12.4 µM and 14.5 µM, respectively. The TGI in the assay on K-562 leukemia was more than 100 µM; with SNB-75 CNS, 61.6 µM; with M14 melanoma, 50.2 µM; in the assay on A549 NSCLC it was 57.1 µM; with TK-10 renal, 54.7 µM; in the assay with EKVX NSCLC, more than 100 µM. Moreover, the TGI was more than 100 µM in the assay with T-47D breast, 36.7 µM with HOP-92 NSCLC and 32.9 µM in the assay with MDA-MB-231 breast.
`Cc1cn(Cc2ccccc2CCl)c(=O)n(Cc2ccccc2CCl)c1=O`: the GI50 was 3.19 µM with K-562 leukemia; 1.81 µM with SNB-75 CNS; 1.69 µM with M14 melanoma; 3.9 µM in the assay with A549 NSCLC; 2.92 µM with TK-10 renal; 2.26 µM with EKVX NSCLC. Moreover, the GI50 in the assay on HOP-92 NSCLC, in the assay on CAKI-1 renal and in the assay on MDA-MB-231 breast was 1.86 µM throughout. The TGI in the assay with K-562 leukemia was 10 µM; in the assay with SNB-75 CNS, 3.79 µM; with M14 melanoma, 3.28 µM; in the assay on A549 NSCLC, 14.2 µM; with TK-10 renal it was 6.53 µM; with EKVX NSCLC, 5.13 µM. Moreover, the TGI in the assay on HOP-92 NSCLC turned out to be 3.62 µM; in the assay with CAKI-1 renal, 3.3 µM; in the assay with MDA-MB-231 breast, 3.57 µM.

Values taken from PubChem BioAssay (NCI).
